Patent US20170290854A1, “COMPOSITIONS AND METHODS FOR TREATING AND PREVENTING BACTERIAL INFECTIONS” (K10 Technologies, Inc., priority 2014, published 2017)

Columns and labels:
Assay in all cases: MIC assay (Experiments II)
Assay type in all cases: cell-based
[1] = tested on: Streptococcus mutans ATCC 31341; details: ATCC31341, S. mutans ATCC 31341, 24 hours, read-out: Minimal inhibitory concentration
Method: (§1) A test sample of water containing water clusters at a concentration of approximately 150 million water clusters per drop of water, with an average water droplet size of 500 microns in diameter, was stored at room temperature until required. The sample of water was prepared according to the methods described in S. Y. Lo et al., Evidence for the existence of stable-water-clusters at room temperature and normal pressure. Physics Letters A (2009)). Linezolid diluted in dimethyl sulfoxide was used as a control.
(§2) The test sample of water containing water clusters was added to the first well of a 96-well plate. 2-fold dilutions were performed into all of the wells of that row containing cation-adjusted Mueller-Hinton Broth (CA-MHB) with 5% lysed horse blood except for the last well, which was used as a control without any testing agent. This was repeated in Brain Heart Infusion (BHI) broth. The Linezolid control followed a similar protocol but was diluted to 8 μg/mL in the first well, followed by 2-fold serial dilutions into both CA-MHB with 5% lysed horse blood and BHI broth.
(§3) Streptococcus mutans ATCC 31341, Streptococcus pneumonia ATCC 49619, and Streptococcus pyogenes ATCC 51339 were obtained from the American Type Culture Collection (Manassas, Va.). All strains were maintained as frozen glycerol stocks at −80° C. Working stocks were prepared by streaking bacteria onto Sheep Blood Agar plates, growing at 37° C. with 5% CO2 for 24 hours and suspending isolated colonies in 3 mL of 0.9% sterile saline to approximately 1×10^8 CFU/mL.
(§4) Bacterial working stocks were diluted into appropriate liquid media for a final inocula of about 5×10^6 CFU/mL. CA-MHB with 5% lysed horse blood was used for all the Streptococcus spp. While BHI broth was also used for S. mutans. 10 μL of stock suspension was added to each well of a 96-well MIC plate treated with the test sample of water containing water clusters. […] The plates were incubated at 35° C. with 5% CO2 for a full 24 hours before reading.

[2] = tested on: Streptococcus pneumonia ATCC 49619; details: Streptococcus pneumoniae, ATCC49619; S. pneumonia ATCC 49619; 24 hours; read-out: Minimal inhibitory concentration
Method: as §1, §2, §3, §4

[3] = tested on: Streptococcus pyogenes ATCC 51339; details: ATCC51339, S. pyogenes ATCC 51339, 24 hours, read-out: Minimal inhibitory concentration
Method: as §1, §2, §3, §4

Measured: MIC

CC(=O)NC[C@H]1CN(c2ccc(N3CCOCC3)c(F)c2)C(=O)O1 [Linezolid]
1 µg/mL: [1] | [2] | [3]
